pEC50, pKi: −log10 of the molar value. Where “and” joins values, the source holds several entries; their conditions need not be identical. Identical values can stand only once. Like-named read-outs stand apart in the source and are kept apart here.
Columns and labels:
[1] = target: T1, dengue virus capping enzyme (Dengue virus type 2, UniProt P29990); experiment: biochemical; format: binding, dengue virus type 2 (strain 16681)
T1 sequence (P29990 2492-2758): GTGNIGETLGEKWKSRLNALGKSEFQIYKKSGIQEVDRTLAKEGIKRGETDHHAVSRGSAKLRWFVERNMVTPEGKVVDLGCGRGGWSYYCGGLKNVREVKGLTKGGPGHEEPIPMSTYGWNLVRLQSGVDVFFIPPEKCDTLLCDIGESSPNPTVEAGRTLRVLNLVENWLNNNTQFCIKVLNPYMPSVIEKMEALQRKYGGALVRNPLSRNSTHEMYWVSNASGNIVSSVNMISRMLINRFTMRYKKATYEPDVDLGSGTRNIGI

[2] = target: yellow fever virus capping enzyme (Yellow fever virus, UniProt P03314); experiment: biochemical; format: binding, yellow fever virus (strain 17D); settings: read-out: FP_YF_KI_AVG_YF_M
Chain of yellow fever virus capping enzyme (P03314 2507-2774 limits assumed): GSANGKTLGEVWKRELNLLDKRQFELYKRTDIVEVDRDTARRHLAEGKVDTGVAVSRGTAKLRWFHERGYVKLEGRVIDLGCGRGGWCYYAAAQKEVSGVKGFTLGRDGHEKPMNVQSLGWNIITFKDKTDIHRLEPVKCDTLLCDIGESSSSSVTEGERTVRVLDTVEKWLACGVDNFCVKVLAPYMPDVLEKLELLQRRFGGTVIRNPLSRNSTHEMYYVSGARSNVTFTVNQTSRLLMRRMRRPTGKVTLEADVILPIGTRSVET

[3] = tested on: dengue type 2 virus subgenomic replicon (BHK-pD2hRucPac); experiment: Antiviral (replicon) assay, Renilla luciferase; format: cell-based; settings: Table 2-1; read-out: Replicon Assay_EC50_M
BHK-pD2hRucPac cells = experiment: Cell viability (CellTiter-Glo) in replicon assay; settings: read-out: Replicon Assay_CC50_M; Table 2-1

Row | SMILES | pKi ([1]; read-out: FP_DEN_Ki_AVG_DEN_M) | pKi [2] | pEC50 [3] | CC50 (BHK-pD2hRucPac cells) | pKi ([1]; read-out: Ki (GTP displacement)) | pKi ([1]; Ki (GTP displacement))
1 | CC(C)c1ccc(/C=C2\SC(=S)N(CC(=O)O)C2=O)cc1 [BG182] | 4.74 | 4.77 | 4.10 | 93 µM |  | 
2 | COc1ccc(OC)c(/C=C2\SC(=S)N(CC(=O)O)C2=O)c1 [BG-309] | ≤ 4.00 | ≤ 4.00 |  | 100 µM |  | 
3 | O=C(O)CCN1C(=O)/C(=C/c2ccc(-c3ccc(Cl)cc3Cl)o2)SC1=S [BG177] |  | 6.00 | 4.52 and 4.59 | 30 µM and 31 µM |  | 
4 | O=C1NC(=S)SC1=Cc1ccccc1OS(=O)(=O)c1ccc([N+](=O)[O-])cc1 [BG127] | 5.30 | 5.22 | 3.96 | 40 µM |  | 
5 | CCOc1cc(/C=C2\SC(=S)NC2=O)ccc1OS(=O)(=O)c1ccccc1[N+](=O)[O-] [BG169] | 5.70 | 5.70 | 4.59 | 29 µM |  | 
6 | CC(C)C(C(=O)O)N1C(=O)/C(=C/c2ccccc2Cl)SC1=S (stereo not drawn) [BG134] | 4.82 | 4.82 | 4.21 | 66 µM |  | 
7 | COc1cc(/C=C2\SC(=O)N(Cc3ccc(F)cc3)C2=O)c(Br)cc1OCC(=O)O [BG163] | 5.30 | 5.05 | 4.49 | 38 µM |  | 
8 | COc1cc(C=C2SC(=S)NC2=O)ccc1OS(=O)(=O)c1ccccc1[N+](=O)[O-] [BG141] |  | 5.70 | 4.62 | 27 µM |  | 
9 | O=C(O)CN1C(=O)C(=Cc2cc(Br)cc(Cl)c2O)SC1=S [BG222] | ≤ 4.00 | ≤ 4.00 |  |  |  | 
10 | O=C1NC(=O)C(=Cc2ccccc2[N+](=O)[O-])S1 [BG146] | 4.26 | 4.18 |  |  |  | 
11 | O=C(CCN1C(=O)C(=Cc2ccc(Cl)cc2)SC1=S)Nc1ccccc1C(=O)O [BG120] | 5.70 | 5.70 | 4.64 | 31 µM |  | 
12 | O=C(O)CN1C(=O)C(=Cc2ccc(Cl)cc2Cl)SC1=S [BG229] | 4.62 | 4.60 |  |  |  | 
13 | O=C(O)CN1C(=O)C(=Cc2cc(Br)ccc2F)SC1=S [BG230] | 4.77 | 4.64 |  |  |  | 
14 | COC(=O)CCN1C(=O)C(=Cc2ccc(Cl)cc2Cl)SC1=S [BG-332] | ≤ 4.00 | ≤ 4.00 |  |  |  | 
15 | O=C(O)CCN1C(=O)C(=Cc2ccc(Cl)c(Cl)c2)SC1=S [BG-328] | 4.85 | 4.92 |  |  | 4.87 | 
16 | O=C(CCN1C(=O)/C(=C/c2cccc(Br)c2)SC1=S)Nc1ccccc1C(=O)O [BG291] |  |  | 4.12 | 68 µM |  | 
17 | O=C(O)CN1C(=O)/C(=C/c2cccc(Cl)c2Cl)SC1=S [BG-317] |  |  |  |  |  | 4.57
18 | O=C(O)CN1C(=O)C(=CC=Cc2ccccc2)SC1=S [BG326] | 4.11 | ≤ 4.00 |  |  |  | 
19 | O=C(O)c1ccccc1/C=C1\SC(=S)N(c2cccc(C(F)(F)F)c2)C1=O [BG129] | 4.96 | 4.72 |  | 47 µM |  | 
20 | O=C(O)CCN1C(=O)/C(=C/c2ccccc2F)SC1=S [BG-329] | ≤ 4.00 | ≤ 4.00 |  |  |  | 
21 | O=C(CN1C(=O)C(=Cc2ccccc2Cl)SC1=S)Nc1cccc(C(=O)O)c1 [BG123] | 5.40 | 5.30 | 4.12 | 103 µM |  | 
22 | O=C1NC(=S)SC1=Cc1cccc(Cl)c1Cl [BG333] | 5.15 | 4.92 | 5.05 | 11 µM |  | 

Row | SMILES | pKi ([1]; read-out: FP_DEN_Ki_AVG_DEN_M) | pKi [2] | pEC50 [3] | CC50 (BHK-pD2hRucPac cells) | pKi ([1]; read-out: Ki (GTP displacement)) | pKi ([1]; Ki (GTP displacement))
23 | O=C(O)CN1C(=O)C(=Cc2cc(Cl)cc(Cl)c2O)SC1=S [BG225] | ≤ 4.00 | ≤ 4.00 |  |  |  | 
24 | O=C(O)CCN1C(=O)C(=Cc2ccc(-c3ccccc3[N+](=O)[O-])o2)SC1=S [BG139] | 5.30 | 5.15 | 4.29 | 56 µM |  | 
25 | COc1cccc(/C=C2\SC(=S)N(CC(=O)O)C2=O)c1OC [BG311] |  | 4.47 |  | 100 µM |  | 
26 | CCc1ccc(C=C2SC(=S)N(CCC(=O)Nc3ccccc3C(=O)O)C2=O)cc1 [BG274] |  |  | 4.20 | 60 µM |  | 
27 | CC(C)c1ccc(C=C2SC(=S)N(CCC(=O)O)C2=O)cc1 [BG183] | 4.92 | 4.89 |  |  |  | 
28 | O=C(O)CN1C(=O)SC(=Cc2ccc(Cl)cc2)C1=O [BG226] |  | ≤ 4.00 |  |  |  | 
29 | COc1ccc(N2C(=O)/C(=C/c3cc([N+](=O)[O-])cc(OC)c3O)SC2=S)cc1 [BG140] |  | 5.70 | 4.89 | 23 µM |  | 
30 | O=C(CN1C(=O)/C(=C/c2ccccc2F)SC1=S)Nc1cccc(C(=O)O)c1 [BG131] | 5.22 | 4.92 | 4.27 | 71 µM |  | 
31 | O=C(CN1C(=O)C(=Cc2ccccc2Cl)SC1=S)Nc1ccc(C(=O)O)cc1 [BG119] | 5.40 | 5.30 | 4.38 | 58 µM |  | 
32 | Cc1cc(C)cc(-n2c(C)cc(/C=C3\SC(=O)NC3=O)c2C)c1 [BG172] | 4.96 | 4.85 | 4.70 | 26 µM |  | 
33 | CC(C)c1ccc(/C=C2\SC(=S)N(CCC(=O)O)C2=O)cc1 [BG-322] |  |  |  |  |  | 4.92
34 | O=C(O)CCN1C(=O)C(=Cc2ccc(F)cc2)SC1=S [BG-321] | ≤ 4.00 | ≤ 4.00 |  |  |  | 
35 | O=C(O)CN1C(=O)C(=Cc2cccc(Cl)c2Cl)SC1=S [BG227] | 4.57 | 4.47 |  |  |  | 
36 | O=C(O)CCN1C(=O)/C(=C/c2ccc(-c3cccc(Cl)c3)o2)SC1=S [BG188] |  |  | 4.29 | 51 µM |  | 
37 | O=C1NC(=O)C(=Cc2cc3c(cc2[N+](=O)[O-])OCO3)S1 [BG145] | 5.10 | 5.05 |  |  |  | 
38 | CC(C)N1C(=O)SC(=Cc2ccccc2OCc2ccc(C(=O)O)cc2)C1=O [BG166] | 5.15 | 4.85 | 4.55 | 33 µM |  | 
39 | COc1ccccc1C=C1SC(=S)N(CCC(=O)O)C1=O [BG-310] |  | 4.36 |  | 100 µM |  | 
40 | CC(=C1SC(=S)NC1=O)c1ccc(C)cc1 [BG137] | 4.72 | 4.60 | 4.26 | 67 µM |  | 
41 | O=C(O)CCN1C(=O)/C(=C/c2ccc(-c3ccccc3Cl)o2)SC1=S [BG290] | ≤ 4.00 |  |  |  |  | 
42 | O=C(CN1C(=O)/C(=C/c2ccccc2Cl)SC1=S)Nc1ccccc1C(=O)O [BG100] | 5.52 | 5.30 | 4.43 | 49 µM |  | 
43 | COc1ccccc1/C=C1\SC(=O)N(CC(=O)O)C1=O [BG215] | 3.06 |  |  | 100 µM |  | 
44 | O=C1C(=Cc2cccc(Br)c2)SC(=S)N1CN1CCCCC1 [BG21] | 4.38 | 4.57 |  |  |  | 

Row | SMILES | pKi ([1]; read-out: FP_DEN_Ki_AVG_DEN_M) | pKi [2] | pEC50 [3] | CC50 (BHK-pD2hRucPac cells) | pKi ([1]; read-out: Ki (GTP displacement)) | pKi ([1]; Ki (GTP displacement))
45 | CCN(CC)c1ccc(N2C(=O)/C(=C/c3ccc(C(=O)O)cc3)SC2=S)cc1 [BG125] | 5.70 | 5.52 |  | 15 µM |  | 
46 | O=C(O)C(Cc1ccccc1)N1C(=O)C(=Cc2ccccc2Cl)SC1=S (racemic) [BG135] | 5.40 | 5.30 | 4.41 | 44 µM |  | 
47 | CCc1ccc(/C=C2\SC(=S)N(CCC(=O)Nc3ccc(C(=O)O)cc3)C2=O)cc1 [BG273] | 5.40 |  |  |  |  | 
48 | O=C(CN1C(=O)/C(=C/c2ccccc2F)SC1=S)Nc1ccccc1C(=O)O [BG132] | 5.52 | 5.52 | 3.94 | 50 µM |  | 
49 | CC(C)(C)c1ccc(/C=C2\SC(=S)N(CCC(=O)O)C2=O)cc1 [BG184] |  |  | 4.34 | 61 µM |  | 
50 | CC(C)(C)c1cc(C=C2SC(=S)NC2=O)cc(C(C)(C)C)c1O [BG179] | 5.70 | 6.00 | 4.82 | 20 µM |  | 
51 | O=C(CCN1C(=O)C(=Cc2ccc(Cl)cc2)SC1=S)Nc1ccc(C(=O)O)cc1 [BG122] | 5.52 | 5.30 | 4.39 | 58 µM |  | 
52 | O=C(O)CN1C(=O)/C(=C/c2ccc(Cl)c(Cl)c2)SC1=S [BG228] | 4.96 | 4.80 |  |  |  | 
53 | CCc1ccc(C=C2SC(=O)NC2=O)cc1 [BG144] | 4.70 | 4.42 |  |  |  | 
54 | O=C(CCN1C(=O)/C(=C/c2ccccc2Cl)SC1=S)Nc1ccccc1C(=O)O [BG289] |  |  | 4.04 | 79 µM |  | 
55 | O=C(O)CCN1C(=O)C(=Cc2ccc(-c3ccccc3)o2)SC1=S [BG292] | ≤ 4.00 |  |  |  |  | 
56 | O=C(O)CN1C(=O)/C(=C/c2ccc(Cl)cc2Cl)SC1=S [BG-319] |  |  |  |  |  | 4.62
57 | O=C(O)CCN1C(=O)/C(=C/c2ccc(-c3ccc(Cl)c(Cl)c3)o2)SC1=S [BG281] | 5.70 |  |  |  |  | 
58 | O=C(O)CN1C(=O)/C(=C/c2ccccc2)SC1=S [BG-325] | ≤ 4.00 | ≤ 4.00 |  |  |  | 
59 | CC(C)(C)c1ccc(C=C2SC(=S)N(CCC(=O)NS(C)(=O)=O)C2=O)cc1 [BG297] | 5.52 |  | 4.11 | 86 µM |  | 
60 | O=C(O)CN1C(=O)/C(=C/c2ccc(F)c(Br)c2)SC1=S [BG224] | 4.57 | 4.57 |  |  |  | 
61 | O=C(O)CCN1C(=O)C(=Cc2ccccc2)SC1=S [BG-327] | ≤ 4.00 | ≤ 4.00 |  |  |  | 
62 | O=C(O)CCCN1C(=O)/C(=C/c2ccc(Cl)cc2Cl)SC1=S [BG-331] | 4.82 | 4.60 |  |  |  | 
63 | O=C(O)CCN1C(=O)C(=Cc2ccc(-c3ccc(Br)cc3)o2)SC1=S [BG286] | ≤ 4.00 |  |  |  |  | 
64 | O=C(O)CN1C(=O)/C(=C/c2ccc(Cl)c(Cl)c2)SC1=S [BG-318] |  |  |  |  |  | 4.96 and 4.95
65 | CC(C)(C)c1ccc(CC2SC(=S)N(CCC(=O)O)C2=O)cc1 (racemic) [BG296] | 5.00 |  | 3.78 | 105 µM |  | 
66 | NC(=O)c1c(NC(=O)CN2C(=O)C(=Cc3ccc(Cl)cc3Cl)SC2=S)sc2c1CCCC2 [BG265] | 4.34 |  |  |  |  | 

Source: patent US9206412B2, “Thioxothiazolidine inhibitors” (Colorado State University Research Foundation, priority 2012, dated 2015)
